Laboratory results as given in patent publication US9694084B2, “Methods to induce targeted protein degradation through bifunctional molecules” (Dana-Farber Cancer Institute, Inc., priority 2014, dated 2017).

Legend:
[1] = test system: MV4-11 cell proliferation; assay: MV4-11 cell proliferation (ATP content); format: cell-based; details: Homo sapiens, MV4-11, 24 h, read-out: IC50, MV4-11 cell proliferation (ATP content)
MV4-11 cells = assay: Apoptosis in MV4-11 cells (Caspase-GLO, PARP and Caspase-3 cleavage, Annexin V); format: cell-based, human; details: MV4-11, 4 or 8 hours then drug washout, assessed at 24 hours
PIM1 = assay: Expression proteomics in MV4-11 cells; details: 250 nM, 2 hours
[2] = biological target: recombinant, human CRBN-DDB1 and BRD4 (Homo sapiens, UniProt O60885+Q96SW2); assay: CRBN-DDB1/BRD4 dimerization (proximity) AlphaScreen assay; format: biochemical; details: co-incubation with 111 nM dBET1, competitor 1 μM, stereo-specific

For Cc1sc2c(c1C)C(c1ccc(Cl)cc1)=N[C@@H](CC(=O)OC(C)(C)C)c1nnc(C)n1-2 [JQ1], the IC50 [1] was 1100 nM, the “apoptotic response after pulsed treatment” value (MV4-11 cells) was “did not yield a pronounced apoptotic response” and the PIM1 protein abundance (PIM1) was “downregulated”. The “competition of dBET1 induced proximity” value [2] was “Inhibition of chemical adaptor function was accomplished”.

In the case of O=C1CCC(N2C(=O)c3ccccc3C2=O)C(=O)N1 (centres unmarked) [thalidomide], the “competition of dBET1 induced proximity” value [2] is reported as “Inhibition of chemical adaptor function was accomplished”.
